Among the data in patent US9133224B2, “Macrocyclic kinase inhibitors” (OSI Pharmaceuticals, LLC, priority 2010, dated 2015) are IC50 values, retold here.

Test [1] deals with T1, GST-tagged full-length FAK enzyme (PTK2) (Homo sapiens, UniProt Q05397).
T1 construct: GST-tagged full-length FAK enzyme (PTK2, Invitrogen PV4085); GST; purchased Invitrogen PV4085
Kind of test: Biochemical Omnia Assay (FAK). How it is done:
Biochemical Omnia Assay Protocol
The Omnia Assay (Invitrogen) has been optimized for GST-tagged full-length FAK enzyme (PTK2, Invitrogen PV4085).
All compound concentrations were assayed in duplicate. Initial compound dilutions were prepared at 100× concentration in 100% DMSO from a 10 mM stock solution. Compounds were further diluted 1:25 in assay buffer resulting in a 4× concentrated solution.
In running the assay, 5 μL of the above 4× concentrated compound solution (or 4% DMSO for positive controls) was added to the assay plate followed by 5 μL of a solution containing peptide (40 μM) and ATP (200 μM) in assay buffer. The reaction was initiated by the addition of 10 μL of FAK (50 nM) in assay buffer, or assay buffer alone for negative controls. The increase in fluorescence due to peptide phosphorylation was monitored continuously as a function of time using a Spectramax M5 plate reader (Molecular Devices) equipped with SoftMax Pro 5.2 software.
IC50 values were determined from the slopes of the linear progress curves by non-linear curve-fitting using GraphPad Prism 5 (GraphPad Software, Inc.).

The next test has as its target T2, FAK (Homo sapiens, UniProt Q05397).
T2 construct: endogenous in cells; host or cells: U87MG glioblastoma cells (ATCC HTB-14)
Kind of test: Cell-based capture ELISA for inhibition of FAK autophosphorylation [pY397] in U87MG cells. As to the method: Cell-Based Assays for Inhibition of FAK Autophosphorylation: MiaPaCa2 and U87MG
The ability of compounds to inhibit FAK autophosphorylation was determined in a cell-based capture ELISA assay using U87MG glioblastoma cells (ATCC, Cat # HTB-14) and the FAK [pY397]ELISA kit from Invitrogen (KHO0441). The assay determines the ability of compounds to block endogenous autophosphorylation of FAK stimulated by fibronectin. Cells plated on fibronectin coated 96-well plate were incubated with compounds at various concentrations in the complete growth medium for 2 h. Cell lysates were then prepared and FAK protein was captured onto a FAK antibody-coated 96-well ELISA plate. The phosphotyrosine content of FAK protein was then monitored by quantitation of degree of binding of an antibody that recognizes only the phosphorylated FAK at Y397 within the captured protein.
Reagents Provided in Biosource FAK [pY397]
Cultures of U87MG cells growing in MEM (Earles) containing non-essential amino acids, sodium pyruvate (1 mM), […] (1%) and 10% fetal bovine serum were detached by trypsin-EDTA and suspended in cell growth medium. Cells were then plated onto fibronectin (600 ng/well)-coated 96-well flat bottom plates at 1.7×10^4 cells per well in 60 uL cell growth medium and incubated overnight at 37° C. in a CO2 incubator.
Compound dilutions were prepared from 10 mM DMSO stocks by dilution in cell growth medium, the final concentration of DMSO in the assay being 0.6%. […] The cells were then incubated with compounds at 37° C. for 2 h. The medium was removed by aspiration and cells were lysed by addition of 20 uL of ice-cold cell lysis buffer per well. The plates were kept on ice for 20 min and 50 uL of standard diluent was added to each well. 50 uL of cell lysate from each well was transferred to respective wells in an assay plate and 50 uL of detection antibody was added to all wells except H1-H6 which were no antibody control wells. Capture assay plates were incubated overnight in a cold room.
Following incubation of the cell lysates and detection antibodies in the ELISA plate, the wells were washed 4 times with 120 uL of wash buffer (1×), then 100 uL of diluted HRP conjugated antibody (1:100 dil in diluent) was added to each well, and the plate was incubated at RT for 30 min. The wells were then washed for 4 times with 120 uL of wash buffer (1×) and 100 uL of chromogen was added to each well and incubated in the dark at RT for 5-10 min. 100 uL of stop solution was added to each well and the absorbance measured at 450 nm, 0.1 s.
Comparison of the assay signals obtained in the presence of compound with those of positive and negative controls (cells with no compound and no detection antibody being added), allows degree of inhibition of phospho-FAK [Y397] to be determined over a range of compound concentrations. […] The assay as described above was modified to determine the effect of inclusion of 50% (v/v) mouse or human plasma. In this assay, the compound plate was prepared as 2× concentration in 100 uL of 100% mouse or human plasma, and 60 uL of this was added to 60 uL of culture medium and incubated at 37° C. incubator for 2 h. The rest of the assay was carried out as described above.

The mark [2] stands for this setting: mean IC50, [ATP] = 50uM, read-out: FAK Activity Biochemical OMNIA, [ATP] = 50uM.
Where [3] appears, read: 50% (v/v) human plasma, mean IC50, read-out: FAK Activity Mechanistic (U87MG) HP.
Setting [4] is: 50% (v/v) mouse plasma, mean IC50, read-out: FAK Activity Mechanistic (U87MG) MP.
Where [5] appears, read: no plasma present, mean IC50, read-out: FAK Activity Mechanistic (U87MG) NP.

Like-named read-outs stand apart in the source and are kept apart here. Where only a bound is given, the exact number is not on record here.

T1 sequence (Q05397 whole entry): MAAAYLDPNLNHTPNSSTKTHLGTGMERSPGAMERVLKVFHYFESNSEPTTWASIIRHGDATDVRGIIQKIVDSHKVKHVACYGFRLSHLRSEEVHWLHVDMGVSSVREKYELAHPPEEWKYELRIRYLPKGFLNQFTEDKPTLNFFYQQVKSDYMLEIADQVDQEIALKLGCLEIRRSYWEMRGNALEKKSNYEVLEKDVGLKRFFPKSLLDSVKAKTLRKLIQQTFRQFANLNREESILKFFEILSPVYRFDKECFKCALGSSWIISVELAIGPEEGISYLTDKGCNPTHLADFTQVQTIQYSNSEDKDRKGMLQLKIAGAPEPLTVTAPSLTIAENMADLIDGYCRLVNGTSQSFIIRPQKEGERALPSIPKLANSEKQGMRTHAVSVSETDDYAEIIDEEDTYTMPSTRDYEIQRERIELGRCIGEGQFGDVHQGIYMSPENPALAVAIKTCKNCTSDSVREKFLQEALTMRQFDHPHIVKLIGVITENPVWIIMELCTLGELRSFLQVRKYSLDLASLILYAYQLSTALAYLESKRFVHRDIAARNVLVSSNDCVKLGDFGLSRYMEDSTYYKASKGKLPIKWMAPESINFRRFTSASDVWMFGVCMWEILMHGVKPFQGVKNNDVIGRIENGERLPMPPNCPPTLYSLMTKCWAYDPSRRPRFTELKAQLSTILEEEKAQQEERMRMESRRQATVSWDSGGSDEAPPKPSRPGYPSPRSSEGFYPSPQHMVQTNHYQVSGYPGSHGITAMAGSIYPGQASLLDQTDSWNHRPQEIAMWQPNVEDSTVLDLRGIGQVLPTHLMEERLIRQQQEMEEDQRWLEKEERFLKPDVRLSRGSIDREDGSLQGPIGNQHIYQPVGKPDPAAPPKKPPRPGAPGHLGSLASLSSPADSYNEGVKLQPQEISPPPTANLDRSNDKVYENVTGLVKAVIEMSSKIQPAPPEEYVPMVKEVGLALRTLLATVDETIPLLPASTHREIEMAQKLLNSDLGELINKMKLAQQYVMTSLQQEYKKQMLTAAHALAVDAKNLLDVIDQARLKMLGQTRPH
T2 sequence (Q05397 whole entry): as above

`CCP1(=O)Cc2ccc(c(OC)c2)Nc2ncc(C(F)(F)F)c(n2)Nc2ccc(nc2C(=O)NC)-c2cnn(c2)CCCO1` (single isomer, unassigned) [Example 67A]: the IC50 was less than 400 nM in test [1] (setting [2]), 400 to 4000 nM at FAK (setting [3]), 400 to 4000 nM at FAK (setting [4]) and less than 400 nM at FAK (setting [5]).
With `CCOP1(=O)Cc2ccc(c(OC)c2)Nc2ncc(C(F)(F)F)c(n2)Nc2ccc(nc2C(=O)NC)-c2cnn(c2)CC(C)CO1` (single isomer, unassigned) [Example 18], the IC50 (in test [1] (setting [2]); on FAK (setting [3]); at FAK (setting [5])) was less than 400 nM in each case.
`CNC(=O)c1nc2ccc1Nc1nc(ncc1C(F)(F)F)Nc1ccc(cc1OC)CP(=O)(O)OCCCn1cc-2cn1` [Example 65, 10-hydroxy-14-methoxy-N-methyl-20-(trifluoromethyl)-9-oxa-4,5,16,18,22,25,28-heptaaza-10-phosphapentacyclo[21.2.2.2^12,15.1^2,5.1^17,21]hentriaconta-1(25),2(31),3,12,14,17(28),18,20,23,26,29-undecaene-24-carboxamide 10-oxide]: the IC50 in test [1] (setting [2]) was less than 400 nM; on FAK (setting [3]) it was more than 4000 nM; on FAK (setting [4]) it was more than 4000 nM; on FAK (setting [5]) it was more than 4000 nM.
As to `CCOP1(=O)Cc2ccc(c(OC)c2)Nc2ncc(C(F)(F)F)c(n2)Nc2ccc(c(F)c2C(=O)NC)-c2cnn(c2)CCCO1` (racemic) [Example 27], the IC50 in test [1] was less than 400 nM; at FAK (setting [4]), 400 to 4000 nM; at FAK (setting [5]), less than 400 nM.
Take `CCCP1(=O)Cc2ccc(c(OC)c2)Nc2ncc(C(F)(F)F)c(n2)Nc2ccc(nc2C(=O)NC)-c2cnn(c2)CCCO1` (racemic) [Example 37]: the IC50 in test [1] (setting [2]) is less than 400 nM; on FAK (setting [3]), less than 400 nM; on FAK (setting [4]) it was 400 to 4000 nM; on FAK (setting [5]), less than 400 nM.
For `CNC(=O)c1nc2ccc1Nc1nc(ncc1C(F)(F)F)Nc1ccc(cc1OC)CP(=O)(C(C)C)OCCCn1cc-2cn1` (single isomer, unassigned) [Example 68A], the IC50 in test [1] (setting [2]) was less than 400 nM; at FAK (setting [3]), 400 to 4000 nM; at FAK (setting [4]), 400 to 4000 nM; at FAK (setting [5]), less than 400 nM.
Take `CCOP1(=O)Cc2ccc(cc2)Nc2ncc(C(F)(F)F)c(n2)Nc2ccc(c3c2C(=O)N(C)C3)-c2cnn(c2)CCCO1` (racemic) [Example 2]: the IC50 (in test [1]; on FAK (setting [3])) was less than 400 nM throughout.
Take `CNC(=O)c1nc2ccc1Nc1nc(ncc1C(F)(F)F)Nc1ccc(cc1OC)CP(=O)(C(C)C)OCCCn1cc-2cn1` (racemic) [Example 68]: the IC50 (in test [1] (setting [2]); on FAK (setting [3]); on FAK (setting [4]); at FAK (setting [5])) was less than 400 nM each time.
In the case of `CCOP1(=O)Cc2ccc(c(OC)c2)Nc2ncc(C(F)(F)F)c(n2)Nc2ccc(nc2C(=O)NOC)-c2cnn(c2)CCCO1` (racemic) [Example 46], the IC50 in test [1] is less than 400 nM; on FAK (setting [3]), less than 400 nM; on FAK (setting [4]), 400 to 4000 nM; on FAK (setting [5]), less than 400 nM.
For `CCOP1(=O)Cc2ccc(c(OC)c2)Nc2ncc(C(F)(F)F)c(n2)Nc2ccc(c(C)c2C(=O)NC)-c2cnn(c2)CCCO1` (racemic) [Example 29], the IC50 in test [1] was less than 400 nM; at FAK (setting [4]) it was more than 4000 nM; at FAK (setting [5]), 400 to 4000 nM.
`CCOP1(=O)Cc2ccc(c(OC)c2)Nc2ncc(C(F)(F)F)c(n2)Nc2ccc(nc2C(=O)NC)-c2cnn(c2Cl)CCCO1` (racemic) [Example 51]: the IC50 was less than 400 nM in test [1], less than 400 nM on FAK (setting [3]), 400 to 4000 nM at FAK (setting [4]) and less than 400 nM on FAK (setting [5]).
For `CCNC(=O)c1nc2ccc1Nc1nc(ncc1C(F)(F)F)Nc1ccc(cc1OC)CP(=O)(OCC)OCC1(COC1)Cn1cc-2cn1` (racemic) [Example 45], the IC50 (in test [1]; on FAK (setting [3]); on FAK (setting [5])) was less than 400 nM throughout.
For the molecule `CCOP1(=O)Cc2ccc(c(Cl)c2)Nc2ncc(C(F)(F)F)c(n2)Nc2ccc(nc2C(=O)NC)-c2cnn(c2)CCCO1` (racemic) [Example 24], the IC50 in test [1] (setting [2]) is less than 400 nM; on FAK (setting [3]) it was less than 400 nM; at FAK (setting [5]), 400 to 4000 nM.
With `CCOP1(=O)Cc2ccc(c(OC)c2)Nc2ncc(C(F)(F)F)c(n2)Nc2ccc(nc2C(=O)NC)-c2cnn(c2)CC(F)(F)CO1` (single isomer, unassigned) [Example 59B], the IC50 was less than 400 nM in test [1], 400 to 4000 nM at FAK (setting [3]) and 400 to 4000 nM at FAK (setting [5]).
As to `CNC(=O)c1nc2ccc1Nc1nc(ncc1C(F)(F)F)Nc1ccc(cc1OC)CP(C)(=O)OCCCn1cc-2cn1` (single isomer, unassigned) [Example 61A], the IC50 (in test [1] (setting [2]); at FAK (setting [3]); at FAK (setting [4]); at FAK (setting [5])) was less than 400 nM in each case.
`CCOP1(=O)Cc2ccc(c(OC)c2)Nc2ncc(C(F)(F)F)c(n2)Nc2ccc(cc2C(=O)NC)-c2cnn(c2)CCCCO1` (racemic) [Example 14]: the IC50 (in test [1] (setting [2]); on FAK (setting [3]); on FAK (setting [5])) was less than 400 nM in each case.
For the molecule `CCOP1(=O)Cc2ccc(c(Cl)c2)Nc2ncc(C(F)(F)F)c(n2)Nc2ccc(nc2C(=O)NC)-c2cnn(c2)CC2(COC2)CO1` (single isomer, unassigned) [Example 58A], the IC50 in test [1] was less than 400 nM; on FAK (setting [3]), 400 to 4000 nM; at FAK (setting [5]), less than 400 nM.
Regarding `CCOP1(=O)Cc2ccc(c(OC)c2)Nc2ncc(C(F)(F)F)c(n2)Nc2ccc(nc2C(=O)NC)-c2cnn(c2)C(C)(C)CCO1` (racemic) [Example 50], the IC50 (in test [1] (setting [2]); at FAK (setting [3]); at FAK (setting [5])) was less than 400 nM in each case.
On to `CCOP1(=O)Cc2ccc(c(OC)c2)Nc2ncc(C(F)(F)F)c(n2)Nc2ccc(nc2C(=O)NC)-c2cnn(c2)C(C)(C)CCO1` (single isomer, unassigned) [Example 50A], for which the values for the IC50 (in test [1] (setting [2]); on FAK (setting [3]); at FAK (setting [5])) were less than 400 nM, 400 to 4000 nM and less than 400 nM, respectively.
Take `CCOP1(=O)Cc2ccc(c(Br)c2)Nc2ncc(C(F)(F)F)c(n2)Nc2ccc(nc2C(=O)NC)-c2cnn(c2)CCCO1` (racemic) [Example 32]: the IC50 (in test [1] (setting [2]); at FAK (setting [3]); at FAK (setting [5])) was less than 400 nM in each case.
`CCOP1(=O)Cc2ccc(c(OC)c2)Nc2ncc(C(F)(F)F)c(n2)Nc2ccc(cc2C(=O)N(C)C)-c2cnn(c2)CCCO1` (racemic) [Example 12]: the IC50 in test [1] (setting [2]) is less than 400 nM; on FAK (setting [3]), 400 to 4000 nM; at FAK (setting [5]), less than 400 nM.
As to `CCOP1(=O)Cc2ccc(c(OC)c2)Nc2ncc(C(F)(F)F)c(n2)Nc2ccc(nc2C(=O)NC)-c2cnn(c2)CCCO1` (single isomer, unassigned) [Example 6B], the IC50 (in test [1]; at FAK (setting [3]); on FAK (setting [5])) was less than 400 nM each time.
For the molecule `CCOP1(=O)Cc2ccc(c(C)c2)Nc2ncc(C(F)(F)F)c(n2)Nc2ccc(nc2C(=O)NC)-c2cnn(c2)CCCO1` (racemic) [Example 33], the IC50 (in test [1]; on FAK (setting [3]); at FAK (setting [5])) was less than 400 nM in each case.
